# Results as given in ChEMBL document CHEMBL1201862, “PubChem BioAssay data set” (2004).
# Active and inactive are the calls of the source.
# What was measured:
# [1] = target: T1, Intestinal-type alkaline phosphatase (Homo sapiens, UniProt P09923); assay: inhibition of human intestinal alkaline phosphatase – biochemical, dose response (AID 488876); type: functional
# [2] = target: Intestinal-type alkaline phosphatase (Mus musculus, UniProt P24822); assay: PubChem AID 488785; type: functional
# [3] = target: T2, Alkaline phosphatase, tissue-nonspecific isozyme (Homo sapiens, UniProt P05186); assay: TNAP enzyme inhibition by screening hits, dose response, selectivity assay for mouse IAP inhibitor project, biochemical, human TNAP, uHTS hits (AID 488906); type: functional
# T2 sequence (P05186 whole entry): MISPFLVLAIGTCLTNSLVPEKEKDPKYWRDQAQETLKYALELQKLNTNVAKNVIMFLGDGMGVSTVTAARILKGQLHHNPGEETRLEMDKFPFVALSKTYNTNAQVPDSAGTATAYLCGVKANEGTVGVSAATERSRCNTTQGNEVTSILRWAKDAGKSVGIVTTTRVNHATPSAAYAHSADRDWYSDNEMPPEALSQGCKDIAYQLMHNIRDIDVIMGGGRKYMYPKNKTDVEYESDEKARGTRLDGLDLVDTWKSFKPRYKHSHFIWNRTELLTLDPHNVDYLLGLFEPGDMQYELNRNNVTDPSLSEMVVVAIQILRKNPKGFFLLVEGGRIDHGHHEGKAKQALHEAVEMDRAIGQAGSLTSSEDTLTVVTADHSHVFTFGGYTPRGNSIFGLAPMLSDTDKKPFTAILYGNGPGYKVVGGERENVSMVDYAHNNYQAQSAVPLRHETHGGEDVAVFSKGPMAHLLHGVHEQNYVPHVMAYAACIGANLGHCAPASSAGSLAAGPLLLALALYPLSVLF
# [4] = target: T3, Histone-lysine N-methyltransferase NSD2 (Homo sapiens, UniProt O96028); type: biochemical
# T3 sequence (O96028 whole entry): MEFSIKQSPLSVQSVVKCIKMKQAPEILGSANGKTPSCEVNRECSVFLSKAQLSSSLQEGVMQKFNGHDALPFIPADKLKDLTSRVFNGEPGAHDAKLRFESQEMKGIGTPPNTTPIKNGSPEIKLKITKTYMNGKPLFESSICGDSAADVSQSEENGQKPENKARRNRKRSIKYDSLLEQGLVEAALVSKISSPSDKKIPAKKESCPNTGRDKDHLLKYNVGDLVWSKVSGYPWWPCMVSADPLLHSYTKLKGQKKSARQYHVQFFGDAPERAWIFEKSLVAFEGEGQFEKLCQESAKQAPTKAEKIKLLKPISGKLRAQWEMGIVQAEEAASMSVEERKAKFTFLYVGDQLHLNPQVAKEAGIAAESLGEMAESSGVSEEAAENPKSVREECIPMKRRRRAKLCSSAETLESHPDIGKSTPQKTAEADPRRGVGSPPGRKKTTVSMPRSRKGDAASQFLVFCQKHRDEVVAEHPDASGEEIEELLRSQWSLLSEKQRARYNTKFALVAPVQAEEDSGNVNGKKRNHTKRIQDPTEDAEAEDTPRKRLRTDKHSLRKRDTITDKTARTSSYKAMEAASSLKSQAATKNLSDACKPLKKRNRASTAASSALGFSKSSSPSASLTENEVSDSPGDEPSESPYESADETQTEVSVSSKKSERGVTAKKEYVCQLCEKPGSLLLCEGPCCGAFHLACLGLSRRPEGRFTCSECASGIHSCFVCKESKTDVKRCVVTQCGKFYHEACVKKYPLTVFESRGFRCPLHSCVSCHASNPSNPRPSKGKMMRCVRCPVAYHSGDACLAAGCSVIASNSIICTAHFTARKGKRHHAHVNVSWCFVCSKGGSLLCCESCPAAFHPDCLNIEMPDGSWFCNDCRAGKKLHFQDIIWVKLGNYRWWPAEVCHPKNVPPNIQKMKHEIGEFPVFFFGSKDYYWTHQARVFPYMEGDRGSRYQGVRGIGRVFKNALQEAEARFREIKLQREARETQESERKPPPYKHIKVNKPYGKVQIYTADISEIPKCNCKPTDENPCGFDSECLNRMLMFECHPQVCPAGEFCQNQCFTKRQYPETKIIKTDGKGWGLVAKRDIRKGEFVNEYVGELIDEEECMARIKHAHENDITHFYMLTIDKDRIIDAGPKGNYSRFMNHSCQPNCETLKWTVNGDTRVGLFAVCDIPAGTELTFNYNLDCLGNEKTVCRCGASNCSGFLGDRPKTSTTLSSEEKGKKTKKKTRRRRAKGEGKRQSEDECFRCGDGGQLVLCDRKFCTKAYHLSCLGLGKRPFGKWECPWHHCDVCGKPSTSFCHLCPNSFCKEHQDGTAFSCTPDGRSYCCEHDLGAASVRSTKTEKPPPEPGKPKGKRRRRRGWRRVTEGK
# [5] = target: Exodeoxyribonuclease V (Escherichia coli (strain K12), UniProt P04993+P07648+P08394); assay: E. coli RecBCD inhibitors, dose response, counter-screen for AddAB inhibitor project, absorbance, V66 E. coli, mutant T4 phage (AID 492957); type: functional, cell-based, Escherichia coli str. K-12 substr. MG1655
# [6] = Counterscreen for AddAB inhibitors: absorbance-based bacterial cell-based high throughput dose response assay for inhibitors of bacterial viability. [Related pubchem assays (depositor defined):AID435030, AID449728, AID449731, AID488942, AID488955, AID488956]; type: functional
# [7] = target: Nucleotide-binding oligomerization domain-containing protein 1 (Homo sapiens, UniProt Q9Y239); assay: NOD1 signaling inhibitors, SAR follow-up, revised (AID 2333); type: functional
# [8] = target: Tumor necrosis factor (Homo sapiens, UniProt P01375); assay: TNFa-triggered NF-kB activation inhibitors, SAR follow-up, cell-based, revised (AID 2337); type: functional
# [9] = tested on: HEK293; assay: cells; details: Homo sapiens
# [10] = target: T4, Heat shock factor protein 1 (Mus musculus, UniProt P38532); assay: inhibition of MG132-induced HSE-luciferase signal, confirmation, cell-based, NIH3T3, luminescence, dose retest (AID 2382); type: functional;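 also: NIH3T3 fibroblasts with HSF1-driven luciferase reporter stressed by proteasome inhibitor MG132; luminescence from HSF1-driven luciferase expression after 8 hours of MG132 stress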
# T4 sequence (P38532 whole entry): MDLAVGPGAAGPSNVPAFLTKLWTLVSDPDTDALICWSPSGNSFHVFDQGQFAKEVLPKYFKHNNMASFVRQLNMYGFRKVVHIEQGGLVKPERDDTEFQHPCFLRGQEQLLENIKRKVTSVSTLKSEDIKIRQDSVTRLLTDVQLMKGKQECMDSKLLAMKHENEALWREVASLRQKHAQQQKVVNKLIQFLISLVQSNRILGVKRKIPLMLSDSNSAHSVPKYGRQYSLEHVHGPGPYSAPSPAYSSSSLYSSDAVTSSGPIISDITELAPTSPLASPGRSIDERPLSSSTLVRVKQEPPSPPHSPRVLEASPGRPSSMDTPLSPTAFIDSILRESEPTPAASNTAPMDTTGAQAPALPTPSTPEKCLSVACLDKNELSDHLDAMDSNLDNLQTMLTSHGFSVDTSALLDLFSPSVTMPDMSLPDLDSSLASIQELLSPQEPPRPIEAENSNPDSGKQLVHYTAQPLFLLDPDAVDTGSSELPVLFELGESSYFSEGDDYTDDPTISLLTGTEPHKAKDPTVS
# [11] = inhibitors of firefly luciferase expression or activity, dose response, H4 neuroglioma cells, luminescence (AID 1990); type: functional, cell-based
# [12] = C. albicans growth with fluconazole, confirmation, fluorescence, retest (AID 2467); type: functional, cell-based
# [13] = tested on: Streptococcus; assay: Group A Streptococcus viability loss, dose response, counter-screen for streptokinase expression inhibitor project, luminescence, BacTiterGlo (AID 1915); type: functional, organism-based;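 also: potency for reduction of bacterial viability or growth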
# [14] = cells; type: functional, cell-based
# [15] = NIH-3T3 fibroblast cytotoxicity, dose response, cytotoxicity control, cell-based, fluorescence, Alamar Blue, secondary assay (AID 2327); type: functional;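 also: NIH-3T3 mouse fibroblasts cultured with fluconazole at 8 µg/mL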
# [16] = tested on: HEK293; assay: cells; type: functional, cell-based; details: Homo sapiens
# [17] = tested on: BJ; assay: cytotoxicity toward BJ-TERT-LT-ST fibroblasts, dose response, cell-based, RAS-independent, luminescence (AID 1935); type: functional; details: Homo sapiens;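 also: BJ fibroblasts immortalized with TERT plus LT and ST oncogenes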
# [18] = tested on: BJ; assay: cytotoxicity toward BJ-TERT fibroblasts, dose response, cell-based, RAS-independent, luminescence (AID 1933); type: functional; details: Homo sapiens
# [19] = tested on: BJ; assay: cytotoxicity toward Ras-transformed BJeLR fibroblasts, dose response, cell-based, alamar blue fluorescence, cherrypicked samples (AID 2631); type: functional; details: Homo sapiens;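 also: confirmatory dose-response assay in RAS-dependent BJ fibroblasts engineered with TERT, LT and ST, with cytotoxicity read by fluorescence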
# [20] = cytotoxicity toward DRD oncogenic fibroblasts, dose response, cell-based, non-viral oncogenic, luminescence (AID 1934); type: functional; details: Homo sapiens
# [21] = tested on: BJ; assay: cells; type: functional, cell-based; details: Homo sapiens
# [22] = Luminescence-based dose response cell-based high throughput screening assay for cytotoxic compounds using the IEC-6 intestinal epithelial cell line. [Related pubchem assays: 1858 (Summary AID.), 1825 (Counterscreen.), 1907 (Confirmation screen.)]; type: functional
# [23] = tested on: HEK293; assay: NOD1 signaling inhibitors, primary screen, cell-based, luminescence, uHTS (AID 1578); type: functional; details: Homo sapiens
# [24] = target: T5, Streptokinase A (Streptococcus pyogenes serotype M1, UniProt P10520); assay: S. pyogenes streptokinase expression inhibitors, potency, dose response, plasminogen activation absorbance, OD405 (AID 1914); type: functional, Streptococcus pyogenes M1 GAS;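 also: secreted streptokinase activity via plasminogen activation per viability signal from cell pellet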
# T5 sequence (P10520 whole entry): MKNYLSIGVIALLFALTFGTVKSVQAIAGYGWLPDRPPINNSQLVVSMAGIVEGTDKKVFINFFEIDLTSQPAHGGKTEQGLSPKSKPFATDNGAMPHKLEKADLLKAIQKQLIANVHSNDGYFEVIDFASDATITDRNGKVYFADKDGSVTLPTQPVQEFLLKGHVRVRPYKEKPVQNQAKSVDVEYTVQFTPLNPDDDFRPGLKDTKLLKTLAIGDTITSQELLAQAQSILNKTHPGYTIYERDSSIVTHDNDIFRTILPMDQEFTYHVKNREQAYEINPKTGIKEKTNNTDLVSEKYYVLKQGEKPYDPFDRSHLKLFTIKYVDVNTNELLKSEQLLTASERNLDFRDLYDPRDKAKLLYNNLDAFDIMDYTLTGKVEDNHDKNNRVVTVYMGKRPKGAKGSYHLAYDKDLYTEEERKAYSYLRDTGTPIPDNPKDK
# [25] = target: Nucleotide-binding oligomerization domain-containing protein 2 (Homo sapiens, UniProt Q9HC29); assay: NOD2 signaling inhibitors, cell-based, luminescence, uHTS, HEK293 (AID 1566); type: functional
# [26] = tested on: HEK293; assay: NOD2 signaling inhibitors in MDP-stimulated cells, cell-based, uHTS, luminescence (AID 2001); type: functional; details: Homo sapiens
# [27] = Luminescence Cell-Based Dose Response HTS to Identify Inhibitors of 5'UTR Stem-Loop Driven Prion Protein mRNA Translation in H4 Neuroglioblastoma Cells. [Related pubchem assays: 1827 (Project Summary), 1813 (Primary HTS)]; type: functional
# [28] = target: Heat shock protein HSP 90-alpha (Homo sapiens, UniProt P07900); type: functional, organism-based
# [29] = tested on: INS1; assay: beta cell apoptosis inhibitors, cytokine rescue, dose response, luminescence, retest (AID 449756); type: functional, cell-based; details: Rattus norvegicus;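 also: cell death triggered by IL-1 beta plus TNF-alpha plus IFN-gamma mixture; protective hits raise ATP signal compared with cytokine alone wells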
# [30] = inhibitors of SNCA 5'UTR-driven reporter translation, confirmation, H4 neuroglioma cells, luminescence (AID 1988); type: functional, cell-based
# [31] = tested on: HEK293; assay: cells; type: functional, cell-based; details: Homo sapiens; remark: listed apart in the source
# [32] = tested on: Streptococcus sp. 'group A'; assay: growth inhibition of control SK(-) GAS strain, dose response, counter-screen for streptokinase expression inhibitor project, luminescence, kanamycin, BacTiterGlo, confirmation (AID 1900); type: functional, organism-based
# [33] = cells; type: functional, cell-based; remark: listed apart in the source
# [34] = target: T1, Intestinal-type alkaline phosphatase; assay: Dose Response confirmation of uHTS hits from a small molecule inhibitors of human intestinal alkaline phosphatase via a luminescent assay. [Related pubchem assays (depositor defined):AID2544, AID2574]; type: functional
# T1 sequence (P09923 whole entry): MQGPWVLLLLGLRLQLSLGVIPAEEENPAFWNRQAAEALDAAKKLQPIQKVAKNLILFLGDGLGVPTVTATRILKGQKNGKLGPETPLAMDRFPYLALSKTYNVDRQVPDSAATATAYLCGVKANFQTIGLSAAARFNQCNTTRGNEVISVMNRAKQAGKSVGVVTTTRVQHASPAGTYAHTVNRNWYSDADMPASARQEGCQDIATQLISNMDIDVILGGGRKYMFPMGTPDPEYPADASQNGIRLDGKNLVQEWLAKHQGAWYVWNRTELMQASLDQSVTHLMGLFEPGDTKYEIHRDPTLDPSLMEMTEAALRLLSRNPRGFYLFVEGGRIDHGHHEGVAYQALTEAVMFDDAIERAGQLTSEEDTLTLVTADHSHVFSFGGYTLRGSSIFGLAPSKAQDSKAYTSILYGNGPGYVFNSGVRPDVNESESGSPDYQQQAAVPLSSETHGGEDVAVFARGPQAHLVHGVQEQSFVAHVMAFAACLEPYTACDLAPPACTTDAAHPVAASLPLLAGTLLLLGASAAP
# Sequence of Exodeoxyribonuclease V (P04993 whole entry): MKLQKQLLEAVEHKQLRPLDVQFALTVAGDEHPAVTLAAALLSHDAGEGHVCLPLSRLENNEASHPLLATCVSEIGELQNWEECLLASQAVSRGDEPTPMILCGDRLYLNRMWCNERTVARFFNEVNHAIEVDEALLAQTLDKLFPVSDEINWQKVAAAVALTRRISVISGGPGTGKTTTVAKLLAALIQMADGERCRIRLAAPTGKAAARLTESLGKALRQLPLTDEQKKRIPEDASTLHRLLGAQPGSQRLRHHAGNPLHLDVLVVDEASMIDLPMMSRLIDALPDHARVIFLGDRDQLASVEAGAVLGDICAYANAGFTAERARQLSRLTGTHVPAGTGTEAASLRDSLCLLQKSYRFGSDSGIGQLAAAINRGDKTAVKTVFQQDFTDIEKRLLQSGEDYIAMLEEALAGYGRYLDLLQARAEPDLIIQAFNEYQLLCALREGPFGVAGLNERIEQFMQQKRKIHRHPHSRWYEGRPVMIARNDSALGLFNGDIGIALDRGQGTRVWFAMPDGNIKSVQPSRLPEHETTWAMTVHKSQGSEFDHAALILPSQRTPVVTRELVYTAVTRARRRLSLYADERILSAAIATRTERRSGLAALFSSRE
# Sequence of Exodeoxyribonuclease V (P07648 whole entry): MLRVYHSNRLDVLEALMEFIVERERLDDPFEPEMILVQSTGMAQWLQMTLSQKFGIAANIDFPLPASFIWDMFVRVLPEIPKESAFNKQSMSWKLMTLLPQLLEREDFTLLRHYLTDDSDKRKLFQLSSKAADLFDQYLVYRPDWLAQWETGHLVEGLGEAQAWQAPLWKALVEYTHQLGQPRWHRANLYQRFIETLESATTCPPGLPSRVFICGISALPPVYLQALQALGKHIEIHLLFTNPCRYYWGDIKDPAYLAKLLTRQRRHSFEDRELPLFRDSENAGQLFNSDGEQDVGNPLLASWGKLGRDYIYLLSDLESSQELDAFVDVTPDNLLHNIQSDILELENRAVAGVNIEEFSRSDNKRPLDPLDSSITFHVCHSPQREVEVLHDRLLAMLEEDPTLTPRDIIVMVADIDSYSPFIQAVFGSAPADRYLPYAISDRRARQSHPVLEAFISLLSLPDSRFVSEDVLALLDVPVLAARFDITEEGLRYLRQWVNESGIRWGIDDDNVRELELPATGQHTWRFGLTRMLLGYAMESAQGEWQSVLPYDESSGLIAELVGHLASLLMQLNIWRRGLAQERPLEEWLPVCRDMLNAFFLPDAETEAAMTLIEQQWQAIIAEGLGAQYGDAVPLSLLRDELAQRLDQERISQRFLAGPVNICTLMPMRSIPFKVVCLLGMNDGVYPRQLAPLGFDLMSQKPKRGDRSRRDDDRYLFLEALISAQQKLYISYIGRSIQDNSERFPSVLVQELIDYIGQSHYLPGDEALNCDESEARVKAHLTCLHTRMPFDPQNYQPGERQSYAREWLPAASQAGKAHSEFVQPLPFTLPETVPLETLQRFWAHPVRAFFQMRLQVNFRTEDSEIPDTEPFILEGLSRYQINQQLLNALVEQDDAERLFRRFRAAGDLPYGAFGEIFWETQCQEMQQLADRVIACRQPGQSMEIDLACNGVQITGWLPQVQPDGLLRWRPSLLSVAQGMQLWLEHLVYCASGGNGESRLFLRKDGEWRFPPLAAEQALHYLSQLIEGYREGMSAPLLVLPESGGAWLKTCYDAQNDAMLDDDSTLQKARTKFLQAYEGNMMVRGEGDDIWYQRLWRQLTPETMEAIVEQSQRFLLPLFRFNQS
# Sequence of Exodeoxyribonuclease V (P08394 whole entry): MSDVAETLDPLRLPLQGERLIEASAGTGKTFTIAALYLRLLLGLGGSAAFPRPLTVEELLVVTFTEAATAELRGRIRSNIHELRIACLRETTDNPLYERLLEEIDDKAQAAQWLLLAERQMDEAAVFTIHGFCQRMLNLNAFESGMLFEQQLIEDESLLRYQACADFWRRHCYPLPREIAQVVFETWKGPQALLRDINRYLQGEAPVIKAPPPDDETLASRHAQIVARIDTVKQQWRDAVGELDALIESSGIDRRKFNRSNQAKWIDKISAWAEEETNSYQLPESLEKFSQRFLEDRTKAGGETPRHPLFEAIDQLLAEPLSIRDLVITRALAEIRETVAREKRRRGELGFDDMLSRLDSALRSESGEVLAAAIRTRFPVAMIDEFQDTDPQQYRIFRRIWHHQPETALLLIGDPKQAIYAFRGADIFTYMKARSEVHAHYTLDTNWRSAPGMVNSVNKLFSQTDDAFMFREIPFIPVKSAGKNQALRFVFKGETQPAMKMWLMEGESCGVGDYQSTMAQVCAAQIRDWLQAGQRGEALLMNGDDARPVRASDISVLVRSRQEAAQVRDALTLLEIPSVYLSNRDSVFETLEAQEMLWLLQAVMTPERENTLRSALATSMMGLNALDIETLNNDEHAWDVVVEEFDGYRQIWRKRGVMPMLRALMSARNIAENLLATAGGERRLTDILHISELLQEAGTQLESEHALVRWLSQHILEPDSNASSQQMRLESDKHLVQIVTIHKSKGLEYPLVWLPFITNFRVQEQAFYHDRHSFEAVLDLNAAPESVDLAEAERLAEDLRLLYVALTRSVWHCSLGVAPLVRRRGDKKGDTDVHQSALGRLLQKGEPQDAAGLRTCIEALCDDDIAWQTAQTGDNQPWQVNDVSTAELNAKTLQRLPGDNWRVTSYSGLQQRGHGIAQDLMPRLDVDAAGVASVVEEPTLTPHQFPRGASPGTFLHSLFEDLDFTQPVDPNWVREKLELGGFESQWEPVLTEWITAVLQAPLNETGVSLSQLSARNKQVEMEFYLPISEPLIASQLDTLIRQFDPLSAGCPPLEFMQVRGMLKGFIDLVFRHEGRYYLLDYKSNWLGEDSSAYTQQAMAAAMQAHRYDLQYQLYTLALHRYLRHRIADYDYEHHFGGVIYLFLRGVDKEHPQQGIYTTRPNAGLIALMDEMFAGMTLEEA
# Sequence of Intestinal-type alkaline phosphatase (Mus musculus, UniProt P24822) (P24822 whole entry): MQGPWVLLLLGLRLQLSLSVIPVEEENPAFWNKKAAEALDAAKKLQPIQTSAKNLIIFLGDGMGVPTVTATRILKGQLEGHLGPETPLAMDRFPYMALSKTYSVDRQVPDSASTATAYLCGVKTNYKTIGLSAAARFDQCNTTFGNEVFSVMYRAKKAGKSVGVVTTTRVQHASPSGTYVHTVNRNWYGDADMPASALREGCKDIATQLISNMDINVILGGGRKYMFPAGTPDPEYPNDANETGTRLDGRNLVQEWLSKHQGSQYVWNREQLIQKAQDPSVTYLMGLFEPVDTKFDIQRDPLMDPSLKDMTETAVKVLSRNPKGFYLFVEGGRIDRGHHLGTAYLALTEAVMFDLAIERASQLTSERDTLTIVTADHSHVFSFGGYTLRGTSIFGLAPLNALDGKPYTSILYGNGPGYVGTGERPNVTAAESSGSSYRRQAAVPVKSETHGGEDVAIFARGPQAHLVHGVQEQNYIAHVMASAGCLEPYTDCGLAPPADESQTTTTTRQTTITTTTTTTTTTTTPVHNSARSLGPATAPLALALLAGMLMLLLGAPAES
# Sequence of Nucleotide-binding oligomerization domain-containing protein 2 (Q9HC29 whole entry, the tested form may be a part): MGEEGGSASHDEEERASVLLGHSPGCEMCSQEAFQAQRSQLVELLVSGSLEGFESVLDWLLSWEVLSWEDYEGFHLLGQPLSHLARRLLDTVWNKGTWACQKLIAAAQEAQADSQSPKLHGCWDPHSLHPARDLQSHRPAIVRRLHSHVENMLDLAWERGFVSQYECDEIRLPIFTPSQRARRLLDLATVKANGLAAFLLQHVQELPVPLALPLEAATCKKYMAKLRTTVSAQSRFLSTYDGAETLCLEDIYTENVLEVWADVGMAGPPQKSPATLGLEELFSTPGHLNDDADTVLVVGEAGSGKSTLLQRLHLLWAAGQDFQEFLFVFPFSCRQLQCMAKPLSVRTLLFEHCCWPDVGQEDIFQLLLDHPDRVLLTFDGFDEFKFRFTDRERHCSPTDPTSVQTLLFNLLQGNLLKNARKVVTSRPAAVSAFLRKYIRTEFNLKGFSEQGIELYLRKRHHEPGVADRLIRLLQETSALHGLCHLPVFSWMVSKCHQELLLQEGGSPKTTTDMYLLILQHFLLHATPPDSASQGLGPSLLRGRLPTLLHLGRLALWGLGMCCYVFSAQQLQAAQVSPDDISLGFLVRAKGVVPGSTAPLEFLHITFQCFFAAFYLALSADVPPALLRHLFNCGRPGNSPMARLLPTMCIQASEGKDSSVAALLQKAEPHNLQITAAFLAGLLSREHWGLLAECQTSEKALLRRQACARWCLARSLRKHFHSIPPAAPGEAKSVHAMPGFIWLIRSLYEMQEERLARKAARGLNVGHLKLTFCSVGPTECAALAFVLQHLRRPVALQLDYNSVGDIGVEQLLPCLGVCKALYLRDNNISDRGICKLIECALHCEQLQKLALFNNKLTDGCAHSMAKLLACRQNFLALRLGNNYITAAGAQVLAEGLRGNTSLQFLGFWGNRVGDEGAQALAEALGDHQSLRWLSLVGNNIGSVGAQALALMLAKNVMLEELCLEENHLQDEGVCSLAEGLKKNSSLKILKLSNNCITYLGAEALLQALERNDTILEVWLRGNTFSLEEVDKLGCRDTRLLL
compound,measurement,setting,value
CN1C(=O)NC(=O)/C(=C/c2ccc([N+](=O)[O-])o2)C1=O,IC50,[1],> 100 µM (inactive)
same,IC50,[2],43.8 µM (active)
same,IC50,[3],> 100 µM (inactive)
same,AC50,[4],15.4 µM (active)
Cc1ccc(NC(=O)Cn2cnc3ccccc32)cc1C,IC50,[5],> 119 µM (inactive)
same,IC50,[6],> 119 µM (inactive)
O=C(CSc1nc(O)c2c(-c3ccccc3)csc2n1)NC1CCCCC1,IC50,[7],> 20 µM (inactive)
same,IC50,[8],> 20 µM (inactive)
same,IC50,[9],> 20 µM (inactive)
Cc1ccc(C(C)C)c(OCc2ccc(C(=O)N/N=C/c3cccc(O)c3O)cc2)c1,EC50,[10],1.24 µM (active)
same,EC50,[11],0.54 µM (active)
same,EC50,[12],0.928 µM (active)
same,EC50,[13],5.32 µM (active)
same,EC50,[14],6.18 µM (active)
same,EC50,[15],3.17 µM (active)
same,IC50,[16],> 20 µM (inactive)
same,EC50,[17],7.23 µM (active)
same,EC50,[18],9.95 µM (active)
same,EC50,[19],0.533 µM (active)
same,IC50,[5],> 119 µM (inactive)
same,EC50,[20],4.88 µM (active)
same,EC50,[21],2.58 µM (active)
same,IC50,[22],1.67 µM (active)
same,EC50,[23],> 20 µM (inactive)
same,EC50,[24],> 150 µM (not active)
same,EC50,[25],> 20 µM (inactive)
same,IC50,[26],> 20 µM (inactive)
same,EC50,[27],0.979 µM (active)
same,AC50,[28],4.01 µM (active)
same,AC50,[29],0.832 µM (active)
same,EC50,[30],0.976 µM (active)
same,IC50,[31],1.16 µM (active)
same,EC50,[32],1.87 µM (active)
same,EC50,[33],> 350 µM (not active)
same,IC50,[6],> 119 µM (inactive)
O=c1c(O[C@@H]2O[C@H](CO)[C@@H](O)[C@H](O)[C@H]2O)c(-c2ccc(O)c(O)c2)oc2cc(O)cc(O)c12 [ISOQUERCETIN],IC50,[34],5.25 µM (active)
same,IC50,[1],8.96 µM (active)
same,IC50,[2],1.66 µM (active)
same,IC50,[3],14 µM (active)
